IC50 data for 60 molecules are collected here from BindingDB's records for patent US20250289799 (Jiangsu Yahong Meditech Co., 2025).

Each structure is given as a SMILES string. pIC50: −log10 of the molar value.

This assay concerns the target Ubiquitin carboxyl-terminal hydrolase 1/WD repeat-containing protein 48 (Homo sapiens, UniProt O94782+Q8TAF3). The assay is described as follows: In Vitro USP1  Inhibitory Activity. How it is done:
Experimental Methods1) Preparation of 1× assay buffer: 1× assay buffer (modified Tris buffer) was prepared;2) Compound dilution: The compound was transferred to the assay plate by Echo.

A word on the pIC50: it is the negative decadic logarithm of the IC50, by convention in mol/L. High values mean a small IC50, low ones a large IC50.

Ubiquitin carboxyl-terminal hydrolase 1/WD repeat-containing protein 48, sequence (O94782 whole entry): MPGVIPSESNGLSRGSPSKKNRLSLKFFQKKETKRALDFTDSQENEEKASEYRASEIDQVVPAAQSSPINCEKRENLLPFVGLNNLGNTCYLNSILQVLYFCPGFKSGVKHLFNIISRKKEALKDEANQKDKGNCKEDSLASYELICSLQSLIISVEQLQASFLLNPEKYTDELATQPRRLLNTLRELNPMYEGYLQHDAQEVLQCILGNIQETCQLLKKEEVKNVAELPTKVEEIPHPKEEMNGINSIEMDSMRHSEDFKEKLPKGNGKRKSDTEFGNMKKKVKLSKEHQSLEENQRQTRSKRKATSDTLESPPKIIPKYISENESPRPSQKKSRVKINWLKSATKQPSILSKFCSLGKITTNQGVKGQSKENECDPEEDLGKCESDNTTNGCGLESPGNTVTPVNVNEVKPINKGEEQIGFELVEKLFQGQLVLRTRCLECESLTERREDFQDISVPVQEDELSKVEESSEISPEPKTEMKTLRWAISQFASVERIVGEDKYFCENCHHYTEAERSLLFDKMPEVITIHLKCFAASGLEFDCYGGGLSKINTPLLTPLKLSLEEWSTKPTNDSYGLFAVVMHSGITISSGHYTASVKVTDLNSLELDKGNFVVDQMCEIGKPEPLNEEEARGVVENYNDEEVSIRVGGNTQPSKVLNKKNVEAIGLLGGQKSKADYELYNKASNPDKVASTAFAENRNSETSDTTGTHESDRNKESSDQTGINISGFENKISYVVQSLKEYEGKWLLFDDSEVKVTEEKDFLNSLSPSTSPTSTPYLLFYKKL
Ubiquitin carboxyl-terminal hydrolase 1/WD repeat-containing protein 48, sequence (Q8TAF3 whole entry): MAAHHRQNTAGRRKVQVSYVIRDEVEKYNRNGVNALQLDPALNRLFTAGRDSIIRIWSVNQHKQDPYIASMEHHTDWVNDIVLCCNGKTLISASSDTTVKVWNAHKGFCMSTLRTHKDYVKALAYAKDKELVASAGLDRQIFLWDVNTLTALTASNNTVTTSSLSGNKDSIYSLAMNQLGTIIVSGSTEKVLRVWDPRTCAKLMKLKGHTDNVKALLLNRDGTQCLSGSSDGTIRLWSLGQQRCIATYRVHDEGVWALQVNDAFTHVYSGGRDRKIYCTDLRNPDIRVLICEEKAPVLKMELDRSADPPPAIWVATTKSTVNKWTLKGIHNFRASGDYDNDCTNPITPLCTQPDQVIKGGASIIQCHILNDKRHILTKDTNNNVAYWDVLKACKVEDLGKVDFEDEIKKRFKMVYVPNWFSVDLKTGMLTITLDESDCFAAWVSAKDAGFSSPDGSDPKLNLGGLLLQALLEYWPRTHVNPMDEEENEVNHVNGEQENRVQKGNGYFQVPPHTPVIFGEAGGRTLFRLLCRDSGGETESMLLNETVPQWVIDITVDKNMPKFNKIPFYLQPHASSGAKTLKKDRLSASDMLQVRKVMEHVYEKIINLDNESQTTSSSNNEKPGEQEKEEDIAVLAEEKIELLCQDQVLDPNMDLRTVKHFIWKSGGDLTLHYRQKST

With `COc1cnc(-c2ccccc2C(C)C)nc1N(C)Cc1ccc(-c2ccccn2)cc1` [US20250289799, Example 1], the pIC50 is 7.59.
For the molecule `COc1cnc(-c2ccccc2C(C)C)nc1N(C)CC1CCN(c2ccccn2)CC1` [US20250289799, Example 2], the negative-log IC50 (pIC50) is 7.85.
`COc1cnc(-c2ccccc2C(C)C)nc1N(C)Cc1ccc(-c2nc(C(F)(F)F)cn2C)cc1` [US20250289799, Example 3] showed a pIC50 of 8.55.
Turning to `COc1cnc(-c2ccccc2C(C)C)nc1NCc1ccc(-c2nc(C(F)(F)F)cn2C)cc1` [US20250289799, Example 4], the pIC50 was 8.92.
To `COc1cnc(-c2ccccc2C(C)C)nc1NCC1CCN(c2ccccn2)CC1` [US20250289799, Example 5] belongs 8.12.
In turn, `COc1cnc(-c2ccccc2C(C)C)nc1NCc1ccc(-n2nc(C(F)(F)F)cc2C)cc1` [US20250289799, Example 7] had a pIC50 of 8.35.
`COc1cnc(-c2c(OC)ncnc2C2CC2)nc1N(C)Cc1ccc(-c2nc(C(F)(F)F)cn2C)cc1` [US20250289799, Example 8] gave a negative-log IC50 (pIC50) of 8.85.
As for `COc1ncnc(C2CC2)c1-c1ncc2c(n1)N(Cc1ccc(-c3ccccn3)cc1)CCO2` [US20250289799, Example 9], the pIC50 is 7.46.
In the case of `COc1ncnc(C2CC2)c1-c1ncc2c(n1)N(CC1CCN(c3ccccn3)CC1)CCO2` [US20250289799, Example 10], the pIC50 was 6.25.
As to `COc1cnc(-c2ccccc2C(C)C)nc1NCc1ccc(-c2nccn3ccnc23)cc1` [US20250289799, Example 11], the negative-log IC50 (pIC50) was 7.66.
Regarding `Cc1cc(C(F)(F)F)nn1-c1ccc(CN2C(=O)COc3cnc(-c4ccccc4C(C)C)nc32)cc1` [US20250289799, Example 15], the negative-log IC50 (pIC50) is 8.17.
In turn, `CC(C)c1ccccc1-c1ncc(C(F)(F)F)c(NCc2ccc(-c3nc(C(F)(F)F)cn3C)cc2)n1` [US20250289799, Example 17] gave a negative-log IC50 (pIC50) of 8.41.
Consider `COc1cnc(-c2c(OC)ncnc2C2CC2)nc1N(C)Cc1ccc(-c2ccccn2)cc1` [US20250289799, Example 19], for which the pIC50 is 7.62.
For `COc1ncnc(C2CC2)c1-c1ncc2c(n1)N(CC1CCN(c3nc(C(F)(F)F)cn3C)CC1)CCO2` [US20250289799, Example 20], the negative logarithm of the IC50 (pIC50) was 7.04.
With `CC(C)c1ccccc1-c1ncc2c(n1)N(CC1CCN(c3nc(C(F)(F)F)cn3C)CC1)C(=O)CO2` [US20250289799, Example 24], the pIC50 is 8.06.
To `CC(C)c1ccccc1-c1ncc(C(F)(F)F)c(NCC2CCN(c3nc(C(F)(F)F)cn3C)CC2)n1` [US20250289799, Example 25] belongs 8.43; to `COc1cnc(-c2c(OC)ncnc2C2CC2)nc1NCc1ccc(-n2nc(C(F)(F)F)cc2C)cc1` [US20250289799, Example 26], 8.34; to `COc1cnc(-c2c(OC)ncnc2C2CC2)nc1NCc1ccc(-c2nc(C(F)(F)F)cn2C)cc1` [US20250289799, Example 29], 8.32.
Molecule `COc1ncnc(C2CC2)c1-c1ncc2c(n1)N(CC1CCN(c3nc(C(F)(F)F)cn3C)CC1)C(=O)CO2` [US20250289799, Example 30] showed a pIC50 of 7.43.
The figure for `CC(C)c1ccccc1-c1nc(NCc2ccc(-c3ccccn3)cc2)c2occc2n1` [US20250289799, Example 32] is 8.55.
`CC(C)c1ccccc1-c1nc(NCc2ccc(-c3nc(C(F)(F)F)cn3C)cc2)c2occc2n1` [US20250289799, Example 33] had a negative logarithm of the IC50 (pIC50) of 8.92.
Turning to `COc1ncnc(C2CC2)c1-c1nc(NCc2ccc(-c3nc(C(F)(F)F)cn3C)cc2)c2occc2n1` [US20250289799, Example 35], the negative logarithm of the IC50 (pIC50) is 8.02.
In turn, `CC(C)c1ccccc1-c1nc(NCc2ccc(-c3ccccn3)cc2)c2[nH]ccc2n1` [US20250289799, Example 36] had a negative logarithm of the IC50 (pIC50) of 7.65.
As for `COc1ncnc(C2CC2)c1-c1nc(NCc2ccc(-c3ccccn3)cc2)c2[nH]ccc2n1` [US20250289799, Example 37], the pIC50 is 7.29.
The molecule `CC(C)c1ccccc1-c1nc(NCc2ccc(-c3nc(C(F)(F)F)cn3C)cc2)c2ncccc2n1` [US20250289799, Example 40] had a negative-log IC50 (pIC50) of 8.64.
The molecule `COc1cnc(-c2ccccc2C(C)C)nc1NCc1ccc2c(c1)CN(C1CCC(=O)NC1=O)C2=O` (stereo not given) [US20250289799, Example 41] showed a pIC50 of 5.90.
Take `COc1ncnc(C2CC2)c1-c1nc(NCc2ccc(-n3nc(C(F)(F)F)cc3C)cc2)c2occc2n1` [US20250289799, Example 50]: the pIC50 is 8.28.
With `Cc1cc(C(F)(F)F)nn1-c1ccc(CNc2nc(-c3ccccc3C(C)C)nc3ccoc23)cc1` [US20250289799, Example 57], the pIC50 is 8.36.
The figure for `COc1cnc(-c2ccccc2C(C)C)nc1N(C)CC1CCC(c2ccccn2)CC1` (stereo not given) [US20250289799, Example 61] is 7.96; for `COc1cnc(-c2ccccc2C(C)C)nc1N(C)CC1CCN(c2nc(C(F)(F)F)cn2C)CC1` [US20250289799, Example 62] it is 8.68; for `COc1cnc(-c2ccccc2C(C)C)nc1NCC1CCC(c2ccccn2)CC1` (stereo not given) [US20250289799, Example 63] it is 8.48.
The molecule `COc1cnc(-c2ccccc2C(C)C)nc1NCc1ccc(-c2ccccn2)cc1` [US20250289799, Example 64] showed a negative-log IC50 (pIC50) of 8.43.
In turn, `COc1cnc(-c2ccccc2C(C)C)nc1NCC1CCN(c2nc(C(F)(F)F)cn2C)CC1` [US20250289799, Example 65] gave a negative logarithm of the IC50 (pIC50) of 8.68.
Turning to `COc1cnc(-c2ccccc2C(C)C)nc1NCc1ccc(-c2ccc(C)cn2)cc1` [US20250289799, Example 66], the negative-log IC50 (pIC50) was 8.25.
Take `COc1cnc(-c2ccccc2C(C)C)nc1NCc1ccc(OCc2ccccn2)cc1` [US20250289799, Example 67]: the pIC50 is 8.28.
`CCOCCOc1ccc(CNc2nc(-c3ccccc3C(C)C)ncc2OC)cc1` [US20250289799, Example 68] gave a pIC50 of 8.49.
The figure for `COc1cc(CNc2nc(-c3ccccc3C(C)C)ncc2OC)ccc1-n1nc(C(F)(F)F)cc1C` [US20250289799, Example 69] is 8.04.
Molecule `CC(C)Oc1cnc(-c2ccccc2C(C)C)nc1N(C)CC1CCN(c2nc(C(F)(F)F)cn2C)CC1` [US20250289799, Example 70] had a negative-log IC50 (pIC50) of 7.71.
In turn, `CC(C)Oc1cnc(-c2ccccc2C(C)C)nc1N(C)Cc1ccc(-c2nc(C(F)(F)F)cn2C)cc1` [US20250289799, Example 71] had a pIC50 of 8.00.
As for `CC(C)Oc1cnc(-c2ccccc2C(C)C)nc1NCC1CCN(c2nc(C(F)(F)F)cn2C)CC1` [US20250289799, Example 72], the negative-log IC50 (pIC50) is 8.21.
On to `CC(C)Oc1cnc(-c2ccccc2C(C)C)nc1NCc1ccc(-c2nc(C(F)(F)F)cn2C)cc1` [US20250289799, Example 73], for which the pIC50 is 8.44.
In turn, `CC(C)Oc1cnc(-c2ccccc2C(C)C)nc1NCC12CCC(c3ccc(C(F)(F)F)cn3)(CC1)CC2` [US20250289799, Example 74] had a negative-log IC50 (pIC50) of 6.06.
Molecule `CC(C)c1ccccc1-c1ncc(C(F)(F)F)c(NCC2CCN(c3nc(C(F)(F)F)cn3C)CC2)n1` [US20250289799, Example 75] gave a pIC50 of 8.43.
`CC(C)c1ccccc1-c1ncc(C(F)(F)F)c(NCC2CCN(c3ccccn3)CC2)n1` [US20250289799, Example 76] had a pIC50 of 7.52.
Consider `CC(C)c1ccccc1-c1nc(NCc2ccc3c(c2)CCN(C)C3=O)c2occc2n1` [US20250289799, Example 77], for which the pIC50 is 7.55.
To `CC(C)c1ccccc1-c1nc(NCc2ccc3c(c2)CCN(C(C)C)C3=O)c2occc2n1` [US20250289799, Example 78] belongs 8.19; to `CCOCCOc1ccc(CNc2nc(-c3ccccc3C(C)C)nc3ccoc23)cc1` [US20250289799, Example 79], 8.35; to `COC1CC(Oc2ccc(CNc3nc(-c4ccccc4C(C)C)nc4ccoc34)cc2)C1` (stereo not given) [US20250289799, Example 80], 7.59.
For the molecule `COc1cc(-c2nc(C(F)(F)F)cn2C)ccc1CNc1nc(-c2ccccc2C(C)C)nc2ccoc12` [US20250289799, Example 81], the negative logarithm of the IC50 (pIC50) is 8.43.
In turn, `COc1cc(CNc2nc(-c3ccccc3C(C)C)nc3ccoc23)ccc1-c1nc(C(F)(F)F)cn1C` [US20250289799, Example 82] had a negative logarithm of the IC50 (pIC50) of 8.77.
The figure for `COc1cc(-n2nc(C(F)(F)F)cc2C)ccc1CNc1nc(-c2ccccc2C(C)C)nc2ccoc12` [US20250289799, Example 83] is 8.36.
Take `COc1cc(CNc2nc(-c3ccccc3C(C)C)nc3ccoc23)ccc1-n1nc(C(F)(F)F)cc1C` [US20250289799, Example 84]: the pIC50 is 8.05.
To `C#Cc1cnc(-c2ccccc2C(C)C)nc1NCc1ccc(-c2nc(C(F)(F)F)cn2C)cc1` [US20250289799, Example 85] belongs 9.33; to `CC(C)c1ccccc1-c1ncc(OC(F)F)c(NCc2ccc(-c3nc(C(F)(F)F)cn3C)cc2)n1` [US20250289799, Example 86], 8.96; to `CC(C)c1ccccc1-c1ncc(N2CCOCC2)c(NCc2ccc(-c3nc(C(F)(F)F)cn3C)cc2)n1` [US20250289799, Example 87], 8.21.
With `CC(C)c1ccccc1-c1ncc(N2CCN(C)CC2)c(NCc2ccc(-c3nc(C(F)(F)F)cn3C)cc2)n1` [US20250289799, Example 88], the pIC50 is 8.00.
Take `COC(=O)Cc1cnc(-c2ccccc2C(C)C)nc1NCc1ccc(-c2nc(C(F)(F)F)cn2C)cc1` [US20250289799, Example 91]: the pIC50 is 8.89.
The figure for `COc1cnc(-c2c(OC)ncnc2C2CC2)nc1N(C)CC1CCN(c2nc(C(F)(F)F)cn2C)CC1` [US20250289799, Example 92] is 8.48.
Molecule `COc1cnc(-c2c(OC)ncnc2C2CC2)nc1N(C)Cc1ccc(-c2nc(C(F)(F)F)cn2C(C)C)cc1` [US20250289799, Example 93] showed a negative logarithm of the IC50 (pIC50) of 8.82.
The molecule `COc1cnc(-c2c(OC)ncnc2C2CC2)nc1NCc1ccc(-c2ccccn2)cc1` [US20250289799, Example 94] had a negative-log IC50 (pIC50) of 8.19.
